Reference: patent US5668182A, “Method of calming or sedating an animal with a hydroxy benzaldehyde compound” (priority 1996, dated 1997)

Experiments:
mice [1] = assay: Spontaneous locomotor activity of mice (Example 3); assay type: in vivo
Experimental: The effect of vanillin on spontaneous locomotor activity of mice was examined. Three groups of male mice, with four mice per group, were assigned to receive a dosage of vanillin of 0, 200 or 300 mg/kg, respectively. After i.p. injection of vanillin or a control solution (0.9% NaCl in water), an injected mouse was placed by itself in a cage, the cage enclosed in a cabinet to exclude external stimuli, and locomotor activity of the mouse was monitored. Three types of movements of the mouse within the cage were measured, based upon interruptions of 16 beams of infrared light, spaced one inch (2.54 cm) apart, which traverse the cage. Interruptions of the infrared beams are detected by sensors and are recorded as "counts" of activity using a system obtained from Omnitech Electronics, Columbus Ohio.
Three types of activity measures were automatically recorded by the system: (1) all interruptions of all beams were recorded as "Total activity counts"; (2) interruptions of two consecutive beams were recorded as "Ambulatory activity counts"; and (3) interruptions of four consecutive beams were recorded as "Gross movements".
The effects of doses of vanillin (200 and 300 mg/kg i.p.) was assessed and compared with locomotor activity recorded for concomitantly tested mice given only vehicle (0.9% NaCl in water). Measurement of locomotor activity was made during 10 minute intervals for 60 minutes after treatment. Due to the relatively short duration of vanillin encountered, the higher dose group also had measurements taken at three minute intervals for 24 minutes and at one minute intervals for nine minutes after treatment.
Means and standard errors of numbers of counts were determined for each experimental group.

mice [2] = assay: Metrazol-induced seizures in mice (Example 5); assay type: in vivo; conditions: for Death: Metrazol 90 mg/kg i.p. (vehicle 0/6); for Tonic Convulsion: Metrazol 90 mg/kg i.p. (vehicle 6/6)
Experimental: Mice were treated with vanillin (100, 200, or 300 mg/kg) or saline (0.9% NaCl) by i.p. injection. The treatment was followed either by injection of pentylenetetrazol ("Metrazol"), 80 or 90 mg/kg by i.p. injection (given 5 minutes after vanillin) or by exposure to a 1-second pulse of shock through electrodes clamped to the ears (5 minutes after vanillin). The end-points for both tests were the occurrence of a tonic (extensor) convulsion and/or death. Six mice were used per group for the Metrazol-induced seizure test, and five mice were used per group for the electroshock-induced seizure test.

rats = conditions: cited from earlier work
man = conditions: in man; cited from earlier work

## COc1cc(C=O)ccc1O [vanillin, 4-hydroxy-3-methoxybenzaldehyde]
Mice [1]; 200 mg/kg i.p., 0-10 min (control 83 ± 16)
  Gross movements: 86 ± 16 counts
Mice [1]; 200 mg/kg i.p., 0-10 min (control 739 ± 108)
  Ambulatory activity counts: 545 ± 62 counts
Mice [1]; 200 mg/kg i.p., 0-10 min (control 1525 ± 281)
  Total activity counts: 897 ± 201 counts
Mice [1]; 200 mg/kg i.p., 10-20 min (control 41 ± 8)
  Gross movements: 43 ± 8 counts
Mice [1]; 200 mg/kg i.p., 10-20 min (control 461 ± 68)
  Ambulatory activity counts: 291 ± 37 counts
Mice [1]; 200 mg/kg i.p., 20-30 min (control 34 ± 13)
  Gross movements: 18 ± 13 counts
Mice [1]; 200 mg/kg i.p., 20-30 min (control 307 ± 76)
  Ambulatory activity counts: 130 ± 85 counts
Mice [1]; 200 mg/kg i.p., 20-30 min (control 582 ± 126)
  Total activity counts: 481 ± 257 counts
Mice [1]; 200 mg/kg i.p., 30-40 min (control 31 ± 11)
  Gross movements: 14 ± 11 counts
Mice [1]; 200 mg/kg i.p., 30-40 min (control 599 ± 224)
  Ambulatory activity counts: 409 ± 276 counts
Mice [1]; 200 mg/kg i.p., 30-40 min (control 635 ± 204)
  Total activity counts: 410 ± 275 counts
Mice [1]; 200 mg/kg i.p., 40-50 min (control 19 ± 14)
  Gross movements: 32 ± 13 counts
Mice [1]; 200 mg/kg i.p., 40-50 min (control 171 ± 103)
  Ambulatory activity counts: 243 ± 67 counts
Mice [1]; 200 mg/kg i.p., 40-50 min (control 268 ± 167)
  Total activity counts: 413 ± 115 counts
Mice [1]; 200 mg/kg i.p., 50-60 min (control 23 ± 8)
  Gross movements: 31 ± 8 counts
Mice [1]; 300 mg/kg i.p., 0-10 min (control 83 ± 16)
  Gross movements: 75 ± 23 counts
Mice [1]; 300 mg/kg i.p., 0-10 min (control 739 ± 108)
  Ambulatory activity counts: 479 ± 150 counts
Mice [1]; 300 mg/kg i.p., 10-20 min (control 41 ± 8)
  Gross movements: 57 ± 19 counts
Mice [1]; 300 mg/kg i.p., 10-20 min (control 461 ± 68)
  Ambulatory activity counts: 298 ± 117 counts
Mice [1]; 300 mg/kg i.p., 10-20 min (control 832 ± 105)
  Total activity counts: 449 ± 155 counts
Mice [1]; 300 mg/kg i.p., 20-30 min (control 34 ± 13)
  Gross movements: 37 ± 16 counts
Mice [1]; 300 mg/kg i.p., 20-30 min (control 307 ± 76)
  Ambulatory activity counts: 245 ± 100 counts
Mice [1]; 300 mg/kg i.p., 20-30 min (control 582 ± 126)
  Total activity counts: 404 ± 176 counts
Mice [1]; 300 mg/kg i.p., 30-40 min (control 31 ± 11)
  Gross movements: 38 ± 10 counts
Mice [1]; 300 mg/kg i.p., 30-40 min (control 599 ± 224)
  Ambulatory activity counts: 270 ± 74 counts
Mice [1]; 300 mg/kg i.p., 30-40 min (control 635 ± 204)
  Total activity counts: 441 ± 121 counts
Mice [1]; 300 mg/kg i.p., 40-50 min (control 19 ± 14)
  Gross movements: 21 ± 8 counts
Mice [1]; 300 mg/kg i.p., 40-50 min (control 171 ± 103)
  Ambulatory activity counts: 244 ± 66 counts
Mice [1]; 300 mg/kg i.p., 40-50 min (control 268 ± 167)
  Total activity counts: 365 ± 108 counts
Mice [1]; 300 mg/kg i.p., 50-60 min (control 23 ± 8)
  Gross movements: 12 ± 7 counts
Mice [1]; 200 and 300 mg/kg i.p.
  effect on smaller types of motor movements: suppressed
Mice [1]; any time, doses up to 300 mg/kg
  effect on gross movements, such as walking: not significantly affected
Mice [1]; i.p.
  persistence of some effect on locomotor activity: ≥ 60 min
Mice [2]; 300 mg/kg
  protection versus Metrazol-induced seizures: some protection
Mice [2]; particularly at higher doses, data of Table 5
  anticonvulsant activity: some mild anticonvulsant activity
Mice [2]; vanillin 200 mg/kg i.p.
  Death: 2/6
  Tonic Convulsion: 5/6
Mice [2]; vanillin 300 mg/kg i.p.
  Death: 0/6
  Tonic Convulsion: 1/6
rats
  oral LD50: 1580 mg/kg
man
  metabolism and excretion: converted to vanillic acid in the liver and is excreted in the urine
